Experimental data: patent US20070135383A1, “Phospholipase inhibitors, including multi-valent phospholipase inhibitors, and use thereof, including as lumen-localized phospholipase inhibitors” (priority 2005, published 2007)

Tests used:
[1] = Bioavailability study, IV vs oral (Example 13); assay type: in vivo, male CD-1 mice; details: male, CD-1, mouse, plasma; oral ~30 mg/kg vs IV ~3 mg/kg
Procedure: Bioavailability was determined for Compound 5-24 (ILY-V-24) as follows. Generally, the bioavailability was calculated by comparing a timecourse of the concentration of the test compound in the serum of mice after an intravenous (IV) dosing, versus the timecourse of the concentration following an oral dosing of the test compound. The IV dose was ˜3 mg/kg, the oral dose was ˜30 mg/kg.
Oral Formulation. The oral formulation was prepared as follows. To sterile flask, 90 ml of sterile Milli-Q water was added. 9 ml of PEG-400 was added (final concentration of 9%). 50 ul of Tween-80 was added (final concentration of 0.05%). 0.9 g of CMC was weighed and added (final concentration of 0.9% w/v). […]
Study Design. […] On study day 0, all the animals were weighed, dosages were calculated and the animals were dosed by oral route (PO) or (IV) as outlined below in Table 5. […]
Calculations. Bioavailability was calculated as follows. Individual doses were calculated based on an average of body weights taken on the day of dosing. Serum concentrations of test compound, as well as the actual concentration of dosing solutions, were measured using 2-dimensional Mass Spectrophotometry after Liquid Chromatography (LC MS/MS). […]

[2] = Pharmacokinetic study of ILY-4001, IV and oral (Example 1B-3); assay type: in vivo, mice; details: 30 mg/kg oral
Procedure: This example evaluated the bioavailability of ILY-4001 [2-(3-(2-amino-2-oxoacetyl)-1-(biphenyl-2-ylmethyl)-2-methyl-1H-indol-4-yloxy)acetic acid], alternatively referred to herein as methyl indoxam. Specifically, a pharmokinetic study was conducted to determine the fraction of unchanged ILY-4001 in systemic circulation following administration.
Bioavailability was calculated as a ratio of AUC-oral/AUC-intravenous (IV). To determine this ratio, a first set of subject animals were given a measured intravenous (IV) dose of ILY-4001, followed by a determination of ILY-4001 levels in the blood at various time points after administration (e.g., 5 minutes through 24 hours). Another second set of animals was similarly dosed using oral administration, with blood levels of ILY-4001 determined at various time points after administration (e.g., 30 minutes through 24 hours). The level of ILY-4001 in systemic circulation were determined by generally accepted methods (for example as described in Evans, G., A Handbook of Bioanalysis and Drug Metabolism. Boca Raton, CRC Press (2004)). Specifically, […]/mass spectrometry/mass spectrometry (LC/MS/MS) analytical methods were used to quantitate plasma concentrations of ILY-4001 after oral and intravenous administration. Pharmacokinetic parameters that were measured include Cmax, AUC, tmax, t1/2, and F (bioavailability). […]

mouse PLA2 IB enzyme = mouse PLA2 IB enzyme (Mus musculus, UniProt Q9Z0Y2); details: versus the mouse PLA2 IB enzyme; cited from earlier work
[3] = In-vitro Caco-2 permeability study (Example 1B-2); details: human

mouse PLA2 IB enzyme, sequence (Q9Z0Y2 23-146): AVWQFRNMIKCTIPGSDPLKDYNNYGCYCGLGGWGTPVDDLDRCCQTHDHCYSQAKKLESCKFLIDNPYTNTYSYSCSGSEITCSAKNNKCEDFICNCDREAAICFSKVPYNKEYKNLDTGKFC

| SMILES | bioavailability [1] [%] | level of non-absorption from the GI tract into systemic circulation [2] [%] | IC50 (mouse PLA2 IB enzyme) [nM] | Papp A→B at 6 hr, 50 ug/ml [3] [×10⁻⁶ cm/s] |
| --- | --- | --- | --- | --- |
| Cc1c(C(=O)C(N)=O)c2c(OCC(=O)O)cccc2n1CCCCCCCCSCCCCCCCCSCCCCCCCCn1c(C)c(C(=O)C(N)=O)c2c(OCC(=O)O)cccc21 [ILY-V-24, 2,2′-(1,1′-(8,8′-(Octane-1,8-diylbis(sulfanediyl))bis(octane-8,1-diyl))bis(3-(2-amino-2-oxoacetyl)-2-methyl-1H-indole-4,1-diyl))bis(oxy)diacetic acid] | 4 to 8 |  |  |  |
| Cc1c(C(=O)C(N)=O)c2c(OCC(=O)O)cccc2n1Cc1ccccc1-c1ccccc1 [ILY-4001, 2-(3-(2-amino-2-oxoacetyl)-1-(biphenyl-2-ylmethyl)-2-methyl-1H-indol-4-yloxy)acetic acid] |  | ~72 | 150 | ~0.166 |
